{"source": "patent US11512053B2", "about": "“Arginine methyltransferase inhibitors and uses thereof” (priority 2013, dated 2022)", "target": "T1, full-length human PRMT3 isoform 1 (GST-tagged) (Homo sapiens, UniProt O60678)", "T1 construct": "GST-tagged PRMT3; made in house; host or cells: E. coli BL21(DE3) Gold", "T1 sequence (O60678 with tags, fused parts or gaps)": "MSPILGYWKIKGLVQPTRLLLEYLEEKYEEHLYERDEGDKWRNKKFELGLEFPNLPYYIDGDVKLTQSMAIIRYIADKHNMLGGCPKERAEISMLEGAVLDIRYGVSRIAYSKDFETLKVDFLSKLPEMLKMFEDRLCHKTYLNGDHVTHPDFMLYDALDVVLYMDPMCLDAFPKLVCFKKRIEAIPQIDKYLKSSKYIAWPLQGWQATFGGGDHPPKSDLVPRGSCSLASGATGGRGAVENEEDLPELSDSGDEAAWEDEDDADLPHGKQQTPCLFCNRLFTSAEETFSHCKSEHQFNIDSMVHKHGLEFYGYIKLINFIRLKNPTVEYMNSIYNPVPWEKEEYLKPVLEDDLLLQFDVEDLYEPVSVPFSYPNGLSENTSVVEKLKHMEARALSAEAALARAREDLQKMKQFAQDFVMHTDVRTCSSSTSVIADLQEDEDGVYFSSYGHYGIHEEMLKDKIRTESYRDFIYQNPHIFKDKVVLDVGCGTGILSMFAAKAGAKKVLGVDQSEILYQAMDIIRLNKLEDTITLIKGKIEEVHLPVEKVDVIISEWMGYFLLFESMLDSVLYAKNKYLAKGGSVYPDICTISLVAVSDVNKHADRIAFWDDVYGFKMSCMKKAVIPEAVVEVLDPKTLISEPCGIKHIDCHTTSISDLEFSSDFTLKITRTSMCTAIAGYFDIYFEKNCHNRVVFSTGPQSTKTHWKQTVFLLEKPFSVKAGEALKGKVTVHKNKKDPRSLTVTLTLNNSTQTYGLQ", "test": "PRMT3 Biochemical Assay (3H-SAM Flashplate, peptide substrate)", "conditions": "single experiment or average of multiple experiments", "from_the_text": "General Materials. S-adenosylmethionine (SAM), S-adenosylhomocysteine (SAH), bicine, Tween20, dimethylsulfoxide (DMSO), bovine skin gelatin (BSG),), isopropyl-β-D-thiogalactopyranoside (IPTG), and Tris(2-carboxyethyl)phosphine hydrochloride solution (TCEP) were purchased from Sigma-Aldrich at the highest level of purity possible. ^3H-SAM was purchase from American Radiolabeled Chemicals with a specific activity of 80 Ci/mmol. 384-well streptavidin Flashplates were purchased from PerkinElmer.\nSubstrates. Peptide containing the classic RMT substrate motif was synthesized with an N-terminal linker-affinity tag motif and a C-terminal amide cap by 21st Century Biochemicals. The peptide was purified by high-performance liquid chromatography (HPLC) to greater than 95% purity and confirmed by liquid chromatography mass spectrometry (LC-MS). The sequence was Biot-Ahx-[…]-amide (SEQ ID NO.:11).\nMolecular Biology: Full-length human PRMT3 (NM_005788.3) isoform 1 transcript clone was amplified from an HEK 293 cDNA library and subcloned into pGEX-KG (GE Life Sciences). The resulting construct encodes an N-terminal GST tag and a thrombin cleavage sequence ([…] […] […] […] S) (SEQ ID NO.:12) fused directly to Cys 2 of PRMT3.\nProtein Expression. E. coli (BL21(DE3) Gold, Stratagene) made competent by the CaCl2) method were transformed with the PRMT3 construct and ampicillin selection. Protein over-expression was accomplished by growing the PRMT3 expressing E. coli clone and inducing expression with 0.3 mM IPTG at 16° C. The culture was grown for 12 hours, harvested by centrifugation, and stored at −80° C. for purification.\nProtein Purification. […] GST-tagged PRMT3 was eluted with 50 mM Tris, 2 mM glutathione, pH 7.1 and 50 mM Tris, 20 mM glutathione, pH 7.1. Pooled fractions were dialysed in 20 mM Tris, 50 mM NaCl, 5% glycerol, 1 mM EDTA, 1 mM DTT, pH7.5 (Buffer B) and applied to a Q Sepharose Fast Flow column. GST-tagged PRMT3 was eluted by 500 mM NaCl in buffer B. Pooled fractions were dialyzed in 25 mM phosphate buffer, 100 mM NaCl, 5% glycerol, 2 mM DTT, pH 6.8 (Buffer C) and loaded on to a ceramic hydroxyapatite column. GST-tagged PRMT3 eluted with 25-400 mM phosphate in buffer C. Protein was concentrated and buffer was exchanged to 20 mM Tris, 150 mM NaCl, 5% glycerol, 5 mM β-mercaptoethanol, pH7.8 by ultrafiltration. The purity of recovered protein was 70%.\nGeneral Procedure for PRMT3 Enzyme Assays on Peptide Substrates. The assays were all performed in a buffer consisting of 20 mM Bicine (pH=7.6), 1 mM TCEP, 0.005% BSG, and 0.002% Tween 20, prepared on the day of use. Compounds in 100% DMSO (1 ul) were spotted into a polypropylene 384-well V-bottom plates (Greiner) using a Platemate Plus outfitted with a 384-channel head (Thermo Scientific). DMSO (1 ul) was added to Columns 11, 12, 23, 24, rows A-H for the maximum signal control and 1 ul of SAH, a known product and inhibitor of PRMT3, was added to columns 11, 12, 23, 24, rows I-P for the minimum signal control. A cocktail (40 ul) containing the PRMT3 enzyme was added by Multidrop Combi (Thermo-Fisher). The compounds were allowed to incubate with PRMT3 for 30 min at room temperature, then a cocktail (10 ul) containing SAM and peptide was added to initiate the reaction (final volume=51 ul). The final concentrations of the components were as follows: PRMT3 was 0.5 nM, ^3H-SAM was 100 nM, non-radiolabeled SAM was 1.8 uM, peptide was 330 nM, SAH in the minimum signal control wells was 1 mM, and the DMSO concentration was 2%. The assays were stopped by the addition of potassium chloride (10 ul) to a final concentration of 100 mM. 50 ul of the reaction in the 384-well polypropylene plate was then transferred to a 384-well Flashplate and the biotinylated peptides were allowed to bind to the streptavidin surface for at least 1 hour before being washed once with 0.1% Tween20 in a Biotek ELx405 plate washer. […]"}
{"smiles": "CNCCN(C)Cc1c[nH]nc1C#Cc1ccccc1", "note": "[Compound 3]", "values": [{"measurement": "IC50", "value": 9.4, "unit": "µM"}]}
